Reference: PubChem BioAssay (NCI)
Where “and” joins values, the source holds several entries; their conditions need not be identical. Equal entries are not always repeated.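 How tested: cells in 96-well plates exposed to compound for 48 hours at five concentrations. GI50 = concentration required for 50% inhibition of growth. TGI marks complete inhibition of growth.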

Key:
Assay in all cases: NCI tumour cell line growth inhibition, 48 h
CAKI-1 renal = system: CAKI-1 renal
COLO 205 colon = system: COLO 205 colon
HOP-62 NSCLC = system: HOP-62 NSCLC
LOX IMVI melanoma = system: LOX IMVI melanoma
OVCAR-3 ovarian = system: OVCAR-3 ovarian
SK-MEL-28 melanoma = system: SK-MEL-28 melanoma
SW-620 colon = system: SW-620 colon
U251 CNS = system: U251 CNS
HS 578T breast = system: HS 578T breast

Compound | TGI (CAKI-1 renal) | TGI (COLO 205 colon) | TGI (HOP-62 NSCLC) | TGI (LOX IMVI melanoma) | TGI (OVCAR-3 ovarian) | TGI (SK-MEL-28 melanoma) | TGI (SW-620 colon) | TGI (U251 CNS) | GI50 (CAKI-1 renal) | GI50 (COLO 205 colon) | GI50 (HS 578T breast) | TGI (HS 578T breast) | GI50 (LOX IMVI melanoma) | GI50 (SK-MEL-28 melanoma) | GI50 (SW-620 colon) | GI50 (U251 CNS) | GI50 (HOP-62 NSCLC) | GI50 (OVCAR-3 ovarian)
CC1OC(n2cc(F)c(=O)[nH]c2=O)C=CC1O (configuration not stated) | > 100 µM | > 100 µM | > 100 µM | > 64.3 µM | > 100 µM | > 100 µM | > 71.6 µM | > 100 µM |  |  |  |  |  |  |  |  |  | 
Cc1ccc(S(=O)(=O)NCC2CCCCC2=O)cc1 (configuration not stated) | 67.5 µM | > 100 µM |  | > 100 µM | > 100 µM | > 100 µM | > 100 µM | > 100 µM |  |  |  |  |  |  |  |  |  | 
COc1ccc(N(C)c2ncnc3occ(C)c23)cc1 | > 100 µM | < 0.0105 µM | > 100 µM | > 100 µM |  | > 100 µM | > 100 µM | 11.9 µM | < 0.01 µM | < 0.01 µM | < 0.01 µM | < 0.01 µM | < 0.01 µM | < 0.01 µM | < 0.01 µM | < 0.01 µM |  | 
CCOP(=O)(Cc1ccc(CP(=O)(OCC)OCC)n1C)OCC | > 100 µM | > 100 µM | > 100 µM | > 100 µM | > 100 µM | > 100 µM | > 100 µM | > 100 µM |  |  |  |  |  |  |  |  |  | 
CCOC(=O)Oc1c(OC)cc(C(=O)NC2CCc3cc(OC)c(OC)c(OC)c3-c3ccc(SC)c(=O)cc32)cc1OC (configuration not stated) |  | 0.191 µM and 0.0613 µM | 59.6 µM |  |  | > 70 µM | > 70 µM | 0.287 µM and 0.0579 µM |  | 0.0138 µM |  |  |  |  | < 0.007 µM | 0.00962 µM | 0.0328 µM | < 0.007 µM
CC(C)(C)OC(=O)NCC(=O)OCc1ccccc1 |  | > 100 µM | > 100 µM | > 100 µM | > 100 µM | > 100 µM | > 100 µM | > 100 µM |  |  |  |  |  |  |  |  |  | 
O=[n+]1c2c(n([O-])c3ccccc31)CCCCCCCCCC2 | > 100 µM |  |  | > 100 µM | > 100 µM | > 100 µM | > 100 µM | > 100 µM |  |  |  |  |  |  |  |  |  | 
CC(=O)O.CC(=O)O.CC(=O)O.CC(=O)O.CC(=O)O.CC(=O)O.O.[Ti].[Ti] | > 100 µM | > 100 µM | > 100 µM | > 100 µM | > 100 µM | > 100 µM | > 100 µM | > 100 µM | > 100 µM | > 100 µM |  |  | > 100 µM | > 100 µM | > 100 µM | > 100 µM | > 100 µM | > 100 µM
CC1=Nc2ccccc2C1C(Cc1ccccc1N)c1c(C)[nH]c2ccccc12 (configuration not stated) |  | 30.2 µM | 27.9 µM | 28.2 µM | 31.4 µM | 32.8 µM | 34.7 µM | 32.4 µM |  |  |  |  |  |  |  |  |  | 
O=C1c2ccccc2C2(Br)C(=O)c3ccccc3C12 (configuration not stated) | > 100 µM | > 100 µM | > 100 µM | 26.4 µM | > 100 µM | > 100 µM | > 100 µM | > 100 µM |  |  |  |  |  |  |  |  |  | 
O=[N+]([O-])c1nccn1CC(O)c1ccc(F)cc1 (configuration not stated) | > 100 µM | > 100 µM | > 100 µM | > 100 µM | > 100 µM | > 100 µM | > 100 µM | > 100 µM |  |  |  |  |  |  |  |  |  | 
O=C(O)CNc1cc(-c2ccccc2)nc(NCC(=O)O)n1 | > 100 µM | > 100 µM | > 100 µM | > 100 µM | > 100 µM | > 100 µM | > 100 µM | > 100 µM |  |  |  |  |  |  |  |  |  | 
CNC(=S)NC1CCCCC1NC(=S)NC (configuration not stated) | > 100 µM | > 100 µM | > 100 µM | > 100 µM | > 100 µM | > 100 µM | > 100 µM | > 100 µM |  |  |  |  |  |  |  |  |  | 
COC(=O)C(C(=O)C(=O)Nc1cccc(OC)c1)c1cnc2ccccc2n1 (configuration not stated) | > 100 µM | > 100 µM | > 100 µM | > 100 µM |  | > 100 µM | > 100 µM | > 100 µM |  |  |  |  |  |  |  |  |  | 
Ic1ccc(Nc2nc3nonc3nc2Nc2ccc(I)cc2)cc1 |  | 0.937 µM | 0.961 µM |  | > 100 µM |  | > 100 µM | > 100 µM | 0.214 µM | 0.265 µM | 0.329 µM | 2.21 µM |  |  | 0.296 µM | 0.324 µM | 0.302 µM | 0.214 µM
O=C(Nc1nc2ncn(CCI)c2c(=O)[nH]1)c1ccccc1 | > 100 µM | > 100 µM | > 81.1 µM | > 100 µM | > 100 µM | > 100 µM | > 100 µM | > 96.5 µM |  |  |  |  |  |  |  |  |  | 
O=S(O)CCCCSSCC(O)C(O)CSSCCCCS(=O)O (configuration not stated) | > 100 µM | 29 µM and 39.5 µM | > 100 µM | 38.1 µM and 72.7 µM | 23.8 µM and 25.6 µM | 45.1 µM and > 100 µM | 47.6 µM and 61.8 µM | > 100 µM |  |  |  |  |  |  |  |  |  | 
